According to patent US5691319A, “Pyrimidine nucleoside derivatives having anti-tumor activity, their preparation and use” (Sankyo Company, Limited, priority 1991, dated 1997):

Experiments:
mouse fibrosarcoma M5076 = assay: Anti-tumor activity against M5076 fibrosarcoma (sc implanted, BDF1 mice); type: in vivo; conditions: days 1, 4, 7, 10, 13 and 16; for 60 day survivors optimal dose / growth inhibition (%) optimal dose: oral; for 60 day survivors optimal dose: survivors/mice; for growth inhibition (%) optimal dose / growth inhibition (%) optimal dose/4: tumor size on twentieth day; for growth inhibition (%) optimal dose/4: optimal dose/4, oral
Description: The test animals used were female mice, 8-10 weeks old, of the BDF1 strain, weighing 20-25 g. The mice were purchased from Charles River Japan Inc., Kanagawa Japan. The mice were divided into experimental groups, each group containing 6 mice, and all mice within each group were treated identically. Each mouse was inoculated subcutaneously with 1×10^6 viable cells (the number of cells was measured by a dye exclusion method under microscopy) of the mouse fibrosarcoma M5076.
The test compounds listed in the following Table were dissolved in 0.2 ml of N,N-dimethylacetamide and the solution was mixed with 10% Emulphor (trade mark)-physiological saline on an agate mortar. The final concentration of N,N-dimethylacetamide was 5% v/v. The solution was administered orally on the first, fourth, seventh, tenth, thirteenth and sixteenth days following inoculation of the fibrosarcoma cells. The period for which the mice survived and the % inhibition of tumor growth were determined. A control group was not treated.
The anti-tumor effect is shown in the following Table 4 as the percent growth inhibition [GI (%)], calculated from the following equations [R. I. Geran et al., Cancer Chemother. Rept., 3 (1972)]:
TDt=average value of tumor sizes on the twentieth day in the treated group; and
TDc=average value of tumor sizes on the twentieth day in the control group;
tumor size=(tumor length+tumor width)/2.

p-388 leukemia = assay: Anti-tumor activity against p-388 leukemia (ip implanted, CDF1 mice); type: in vivo; conditions: for ILS (%) (increase in life span): days 1, 5 and 9; for 30 days survivors: days 1, 5 and 9, survivors/mice
Description: The test animals employed were female mice, 8 weeks of age, of the CDF1 strain, each weighing 21-25 g. The mice were divided into groups. each of 5 mice, and all mice within the group were treated identically. Into each mouse was implanted intraperitoneally 1×10^6 cells of the leukemia p-388.
The test compounds 1-9, 1-11, 1-15, 1-31 and 1-62 were dissolved in 0.2 ml of N,N-dimethylacetamide and the solution was mixed with 10% Emulphor (trade mark)-physiological saline on an agate mortar. Test compounds 1-34 and 1-41 were dissolved in a small amount of Tween 80 (registered trade mark) and immediately thereafter physiological saline was added to the solution form a suspension. The suspension was administered intraperitoneally on the first, fifth and ninth days following implantation of the leukemia cells. The period for which the mice survived was determined. A control group was treated identically, except that no active compound was administered.
The anti-tumor effect is shown in the following Table 3 as the increase in life span [ILS (%)], calculated from the following equation [R. I. Geran et al, Cancer Chemother. Rept., 3 (1972)]:
Dt=average number of days survival by the test group; and
Dc=average number of days survival by the control group.
In this test Dc was 9-10 days.

SMILES	60 day survivors optimal dose (mouse fibrosarcoma M5076)	growth inhibition (%) optimal dose (mouse fibrosarcoma M5076) [%]	growth inhibition (%) optimal dose/4 (mouse fibrosarcoma M5076) [%]	ILS (%) (increase in life span) (p-388 leukemia; dose 200 mg/kg)	30 days survivors (p-388 leukemia; dose 200 mg/kg)	ILS (%) (increase in life span) (p-388 leukemia; dose 50 mg/kg)	30 days survivors (p-388 leukemia; dose 50 mg/kg)	ILS (%) (increase in life span) (p-388 leukemia; dose 100 mg/kg)	30 days survivors (p-388 leukemia; dose 100 mg/kg)
CCCCCC(=O)Nc1ccn([C@@H]2O[C@H](CO)[C@@H](O)[C@@H]2C#N)c(=O)n1 [Compound 1-1, 2'-Cyano-2'-deoxy-N^4-hexanoyl-1-β-D-arabinofuranosylcytosine]	4/6	97.7	61.1						
CCCCCCCCCC(=O)Nc1ccn([C@@H]2O[C@H](CO)[C@@H](O)[C@@H]2C#N)c(=O)n1 [Compound 1-5, 2'-Cyano-N^4-decanoyl-2'-deoxy-1-β-D-arabinofuranosylcytosine]	3/6	93.0	70.4						
CCCCCCCCCCCCCC(=O)Nc1ccn([C@@H]2O[C@H](CO)[C@@H](O)[C@@H]2C#N)c(=O)n1 [Compound 1-9, 2'-Cyano-2'-deoxy-N^4-tetradecanoyl-1-β-D-arabinofuranosylcytosine]	5/6	97.3	79.1	> 200	4/5				
CCCCCCCCCCCCCCCC(=O)Nc1ccn([C@@H]2O[C@H](CO)[C@@H](O)[C@@H]2C#N)c(=O)n1 [Compound 1-11, 2'-Cyano-2'-deoxy-N^4-palmitoyl-1-β-D-arabinofuranosylcytosine]	5/6	99.2	90.2			189	2/5		
CCCCCCCCCCCCCCCCCC(=O)Nc1ccn([C@@H]2O[C@H](CO)[C@@H](O)[C@@H]2C#N)c(=O)n1 [Compound 1-13, 2'-Cyano-2'-deoxy-N^4-stearoyl-1-β-D-arabinofuranosylcytosine]	4/6	98.1	88.9						
CCCCCCCCCCCCCCCCCCCC(=O)Nc1ccn([C@@H]2O[C@H](CO)[C@@H](O)[C@@H]2C#N)c(=O)n1 [Compound 1-15, 2'-Cyano-2'-deoxy-N^4-icosanoyl-1-β-D-arabinofuranosylcytosine]	5/6	96.5	88.7					202	0/5
COCOCCCCCCCCCC(=O)Nc1ccn([C@@H]2O[C@H](CO)[C@@H](O)[C@@H]2C#N)c(=O)n1 [Compound 1-31, 2'-Cyano-2'-deoxy-N^4-(10-methoxymethoxydecanoyl)-1-β-D-arabinofuranosylcytosine]				152	0/5				
COCOCCCCCCCCCCCCCCCC(=O)Nc1ccn([C@@H]2O[C@H](CO)[C@@H](O)[C@@H]2C#N)c(=O)n1 [Compound 1-34, 2'-Cyano-2'-deoxy-N^4-(16-methoxymethoxyhexadecanoyl)-1-β-D-arabinofuranosylcytosine]	5/6	96.0	87.2					> 195	3/5
COCCOCOCCCCCCCCCCCCCCCC(=O)Nc1ccn([C@@H]2O[C@H](CO)[C@@H](O)[C@@H]2C#N)c(=O)n1 [Compound 1-41, 2'-Cyano-2'-deoxy-N^4-(16-methoxyethoxymethoxyhexadecanoyl)-1-β-D-arabinofuranosylcytosine]	5/6	99.2	76.2					159	2/5
N#CCCCCCCCCCCC(=O)Nc1ccn([C@@H]2O[C@H](CO)[C@@H](O)[C@@H]2C#N)c(=O)n1 [Compound 1-62, 2'-Cyano-N^4-(11-cyanoundecanoyl)-2'-deoxy-1-β-D-arabinofuranosylcytosine]	6/6	99.0	83.3	159	0/5				
